A word on the IC50: it is the concentration that gives 50% inhibition.

The test system of this experiment is HUVEC. Nature of the experiment: Antiangiogenic activity in HUVEC assessed as inhibition of cell proliferation after 18 hrs by WST-8 reagent based assay. Type of experiment: functional. To be noted: Homo sapiens.

For `C=C1[C@@H](C)[C@H]2[C@H](Cc3ccccc3)NC(=O)[C@]23OC(=O)/C=C/[C@@H](O)CCC[C@@H](C)C/C=C/[C@H]3[C@@H]1O`, the IC50 came to 0.2 µM.

As to `COc1cccc2c1C(=O)C(=O)C=C2c1ccc(O)c2c(OC)cccc12`, the half-inhibitory concentration (IC50) turned out to be 7.5 µM.

These data come from ChEMBL document CHEMBL4145566, “Isoindolinones, Phthalides, and a Naphthoquinone from the Fruiting Body of Daldinia concentrica” (J Nat Prod, 2018).
